According to US20250034113A1, “SOLID STATE FORMS OF TAVAPADON AND PROCESSES FOR PREPARATION THEREOF” (TEVA CZECH INDUSTRIES S.R.O, priority 2021, published 2025):

Assay: Stability test of crystalline forms at different relative humidities and temperatures, XRPD analysis
Assay type: physicochemical
Conditions: for XRPD analysis after storage: 2 month; for stability to conditions of relative humidity at elevated temperatures: general statement; for time stable after exposure to different relative humidity conditions at different temperatures: 25° C./60% RH and 40° C./75% RH, by XRPD
Experimental: Powder X-ray Diffraction was performed on an X-Ray powder diffractometer PanAlytical X'pert Pro; CuKα radiation (λ=1.54187 Å); X'Celerator detector with active length 2.122 degrees 2-theta; laboratory temperature 25±3° C.; zero background sample holders. Prior to analysis, the samples were gently ground using a mortar and pestle to obtain a fine powder. The ground sample was adjusted into a cavity of the sample holder and the surface of the sample was smoothed using a cover glass.
• Scan range: 3-40 degrees 2-theta • Scan mode: continuous • Step size: 0.0167 degrees • […] s • Sample spin: 60 rpm • Sample holder: zero background silicon plate
Samples of Tavapadon form 1 and Form H1 were subjected to conditions of different relative humidities at different temperatures. XRPD analysis was performed on the samples after 2 month.
Samples of Tavapadon Form H1 were subjected to conditions of different relative humidities at different temperatures, over a time period of 6 months. XRPD analysis was performed on the samples after 2, 4 and 6 months.
Samples of Tavapadon Form R1 were subjected to conditions of different relative humidities at different temperatures, over a time period of 6 months. XRPD analysis was performed on the samples after 2, 4 and 6 months.

Compound | XRPD analysis after storage (25° C., 60% RH) | XRPD analysis after storage (40° C., 75% RH) | stability to conditions of relative humidity at elevated temperatures | XRPD result (crystalline form) (0 M (start)) | time stable after exposure to different relative humidity conditions at different temperatures | XRPD result (crystalline form) (25° C./60% RH, 2 M) | XRPD result (crystalline form) (25° C./60% RH, 4 M) | XRPD result (crystalline form) (25° C./60% RH, 6 M) | XRPD result (crystalline form) (40° C./75% RH, 2 M) | XRPD result (crystalline form) (40° C./75% RH, 4 M) | XRPD result (crystalline form) (40° C./75% RH, 6 M)
Cc1cc(Oc2ncccc2C(F)(F)F)ccc1-c1c(C)c(=O)[nH]c(=O)n1C (single isomer, unassigned) [Tavapadon Form 1, 1,5-dimethyl-6-(2-methyl-4-{[3-(trifluoromethyl)pyridin-2-yl]oxy}phenyl)pyrimidine-2,4(1H,3H)-dione] | No change | No change | particularly stable | – | – | – | – | – | – | – | –
Cc1cc(Oc2ncccc2C(F)(F)F)ccc1-c1c(C)c(=O)[nH]c(=O)n1C (single isomer, unassigned) [Tavapadon Form H1, 1,5-dimethyl-6-(2-methyl-4-{[3-(trifluoromethyl)pyridin-2-yl]oxy}phenyl)pyrimidine-2,4(1H,3H)-dione] | No change | – | particularly stable | Form H1 | at least 6 months | Form H1 | Form H1 | Form H1 | Form H1 | Form H1 | Form H1
Cc1cc(Oc2ncccc2C(F)(F)F)ccc1-c1c(C)c(=O)[nH]c(=O)n1C (racemic) [Tavapadon Form R1, 1,5-dimethyl-6-(2-methyl-4-{[3-(trifluoromethyl)pyridin-2-yl]oxy}phenyl)pyrimidine-2,4(1H,3H)-dione] | – | – | – | Form R1 | at least 6 months | Form R1 | Form R1 | Form R1 | Form R1 | Form R1 | Form R1
